Experimental data taken from article PMC7764601 (Molecules, 2020).
Like-named read-outs stand apart in the source and are kept apart here.

How the values were obtained:
[1] = system: mice; design: method as in PMID 11234340, PMID 12484538, PMID 15652370; settings: series 1, cited from earlier work
[2] = system: mice; design: method as in PMID 11234340, PMID 12484538, PMID 15652370; settings: cited from earlier work; for % Inh. of locomotor activity: series 1; for ED50, influence on the locomotor activity: imides described previously (series 1)
[3] = system: mice; settings: cited from earlier work
[4] = target: T1, µ receptor of the rat cerebral cortex (Rattus norvegicus, UniProt P33535); assay: Displacement of [3H-DHM] from µ receptor binding sites of rat cerebral cortex; settings: read-out: Dihydromorphine [3H-DHM] Ki
T1 construct: from tissue; host or cells: rat cerebral cortex
T1 sequence (P33535 whole entry): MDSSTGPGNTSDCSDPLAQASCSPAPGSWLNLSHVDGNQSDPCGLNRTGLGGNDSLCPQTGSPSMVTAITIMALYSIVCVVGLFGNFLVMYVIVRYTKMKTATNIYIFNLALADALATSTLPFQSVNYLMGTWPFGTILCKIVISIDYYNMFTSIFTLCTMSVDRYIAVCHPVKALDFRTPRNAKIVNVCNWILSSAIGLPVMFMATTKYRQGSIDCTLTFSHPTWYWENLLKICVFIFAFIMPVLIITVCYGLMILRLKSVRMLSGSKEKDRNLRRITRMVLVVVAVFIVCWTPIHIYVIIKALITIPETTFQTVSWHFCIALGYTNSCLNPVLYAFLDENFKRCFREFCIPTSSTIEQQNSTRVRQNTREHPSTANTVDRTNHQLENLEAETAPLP

[5] = compounds obtained previously (series 1 and 2)

SMILES	Thiopental Anesthesia % Prolong. ([1]; dose 12.5 mg/kg)	Thiopental Anesthesia % Prolong. ([1]; dose 25 mg/kg)	Thiopental Anesthesia % Prolong. ([1]; dose 50 mg/kg)	% Inh. of locomotor activity ([2]; dose 12.5 mg/kg)	% Inh. of locomotor activity ([2]; dose 25 mg/kg)	% Inh. of locomotor activity ([2]; dose 50 mg/kg)	ED50, influence on the locomotor activity [2]	ED50, writhing test [3, 5]	Ki [4]	ED50, writhing test ([3]; imides described previously)
COc1ccccc1N1CCN(CCCN2C(=O)c3cc(C)nc(OC)c3C2=O)CC1 [Compound 1I]	123.3%	140.3%	207.2%	53.91%	72.77%	76.69%	11.8 mg/kg	0.67 mg/kg	30.8 ± 47.8 µM	
COc1nc(C)cc2c1C(=O)N(CCCN1CCN(c3cccc(Cl)c3)CC1)C2=O [Compound 1J]									> 100 µM	8.8 mg/kg
COc1nc(C)cc2c1C(=O)N(CN1CCc3ccccc3C1)C2=O [Compound 1M]		146.6%	195.1%		47.25%	59.21%	29.5 mg/kg	12.7 mg/kg	13.8 ± 12.2 µM	
CCOc1nc(C)cc2c1C(=O)N(CCCN1CCN(c3cccc(Cl)c3)CC1)C2=O [Compound 2J]									> 100 µM	8.7 mg/kg
